# Key:
# Chilo suppressalis = assay: Field protocol against Chilo suppressalis in rice; format: in vivo; conditions: six-step protocol, dosage of 1 to 2 in one thousand from transplantation treasury to before harvest
# Source text: In this invention ethaneperoxoic acid used for the first time to fight with Chilo suppressalis with the below mentioned method: • Step 1: The dosage of 1 in one thousand in the transplantation treasury; • Step 2: At the time of transferring the seedlings to the field with the dosage of 1 in one thousand to fight with the first generation; • Step 3: 10 days after transferring the seedlings to the field with the dosage of 1 in one thousand to fight with the second generation; • Step 4: 30 days after transferring the seedlings to the field with the dosage of 1 in one thousand; • Step 5: 45 days after transferring the seedlings to the field with the dosage of 2 in one thousand and 1 in one thousand to fight with the third generation; • Step 6: before harvesting the rice with the dosage of 2 in one thousand.
# [1] = tested on: fungus, bacteria and viruses and plant pests in all stages such as eggs, larva, adults; assay: Spray with wetting agent to control plant pathogens and pests; format: in vivo; conditions: 3 liters (active ingredient at least 20%) plus 500 cc of non-ionic fatty amine compounds in 1000 liters of water
# Source text: For longer durability of Ethaneperoxoic acid based compounds, non-ionic fatty amine compounds (wetting agent) should be used in this method for the first time in two different ways, both within the formulation or added separately to the compound. These compounds cause the Ethaneperoxoic acid that is sprayed on the target to increase the duration of exposure of Ethaneperoxoic acid to the chitin surface of insects due to the reduction of surface tension of water droplets.
structure (smiles),measurement,setting,value
CC(=O)OO [ethaneperoxoic acid],damage due to the Chilo suppressalis,Chilo suppressalis,completely control
same,"effect in controlling fungus, bacteria and viruses and plant pests in all stages",[1],significant impressive effect

# Reference: patent US20230345943A1, “METHOD AND PROCESS FOR COMPLETE ELIMINATION OF VARIOUS STEPS OF PEST GROWTH IN PLANTS USING DI[…] BASED ON ETHA[…] AND HYDROGEN PEROXIDE” (priority 2020, published 2023)
